# Data from patent US9169463B2, “Stem cell for therapeutic use which is derived from human monocyte, and method for inducing same” (OTSUKA PHARMACEUTICAL CO., LTD., priority 2008, dated 2015).
# Tested on: peripheral blood monocytes
# Experiment: Comparison of stem cell-inducing activities of various gangliosides (viable cells, CellTiter-Glo)
# Format: cell-based, human
# Conditions: gangliosides 100 μg/ml, rhM-CSF 25 ng/ml, second week of culture
# Description: More specifically, gangliosides were added to a culture medium at a final concentration of 100 μg/ml, and peripheral blood monocytes were cultured.
# rhM-CSF was added thereto at a final concentration of 25 ng/ml. Then, the number of viable cells in the second week of culture was quantified as luciferase activity using CellTiter-Glo (Promega).
row,Substance,"stem cell-inducing activity (number of viable cells as luciferase activity, FIG. 3)"
1,bDGalp(1-3)bDGalNAc[aNeu5Ac(2-3)]bDGalp(1-4)bDGlcp(1-1)Cer [GM1],equally-strong stem cell-inducing activities
2,aNeu5Ac(2-3)bDGalp(1-3)bDGalNAc(1-4)[aNeu5Ac(2-8)aNeu5Ac(2-3)]bDGalp(1-4)bDGlcp(1-1)Cer [GT1b],equally-strong stem cell-inducing activities
3,aNeu5Ac(2-3)bDGalp(1-3)bDGalNAc(1-4)[aNeu5Ac(2-3)]bDGalp(1-4)bDGlcp(1-1)Cer [GD1a],equally-strong stem cell-inducing activities
